Experimental data from ChEMBL document CHEMBL3639007, “Cyclohexyl amide derivatives as CRF receptor antagonists” (2014).
Several values for one entry are separate records, joined by “and”; a condition that tells them apart may be missing. Equal values may be shown once.

Experiments:
[1] = molecular target: T1, Corticotropin-releasing factor receptor 1 (Homo sapiens, UniProt P34998); assay: (§1) Homogeneous Time-Resolved Fluorescence Assay: Chinese hamster ovary (CHO) cells expressing either the human or rat recombinant CRF-1 or human CRF-2alpha (Chen et al, Proc Natl Acad Sci USA 90, 8967-8971, 1993; Liaw et al, Endocrinology 137, 72-77, 1996) are propagated in Dulbecco's modified Eagle medium supplemented with 10% foetal calf serum, non-essential amino acids, 100 U/ml penicillin, 100 mg/l streptomycin and 1 g/l geneticin. CHO cells expressing the rat CRF-2beta receptor (Wu et al, Endocrinology 148, 1675-1687, 2007) are propagated in HAM's-F12 Glutamax supplemented with 10% foetal calf serum, 100 IU/ml penicillin, 100 mg/l streptomycin, 600 ug/ml hygromycin, 10 ug/ml blasticidin and induced with 1 ug/ml of tetracyclin for 24 hours prior to experimentation. For cyclic AMP determinations the Homogeneous Time-Resolved Fluoresce (HTRF) CAMP dynamic 2 kit (Cisbio International, France) was used as per manufacturers' instructions.; type: cell-based
T1 sequence (P34998 whole entry): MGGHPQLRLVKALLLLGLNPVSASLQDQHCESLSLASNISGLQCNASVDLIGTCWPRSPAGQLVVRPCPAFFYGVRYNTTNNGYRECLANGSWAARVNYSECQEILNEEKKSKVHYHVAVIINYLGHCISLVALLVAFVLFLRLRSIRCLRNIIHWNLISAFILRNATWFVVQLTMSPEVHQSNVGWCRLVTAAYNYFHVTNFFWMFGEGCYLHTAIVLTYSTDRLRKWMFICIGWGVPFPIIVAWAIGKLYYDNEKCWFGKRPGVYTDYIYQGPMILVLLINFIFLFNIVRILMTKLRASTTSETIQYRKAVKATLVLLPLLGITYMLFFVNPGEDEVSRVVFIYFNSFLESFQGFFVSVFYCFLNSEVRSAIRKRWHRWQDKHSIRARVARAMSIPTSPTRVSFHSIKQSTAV

[2] = molecular target: T2, Corticotropin-releasing factor receptor 2 (Homo sapiens, UniProt Q13324); assay: as §1; type: cell-based
T2 sequence (Q13324 whole entry): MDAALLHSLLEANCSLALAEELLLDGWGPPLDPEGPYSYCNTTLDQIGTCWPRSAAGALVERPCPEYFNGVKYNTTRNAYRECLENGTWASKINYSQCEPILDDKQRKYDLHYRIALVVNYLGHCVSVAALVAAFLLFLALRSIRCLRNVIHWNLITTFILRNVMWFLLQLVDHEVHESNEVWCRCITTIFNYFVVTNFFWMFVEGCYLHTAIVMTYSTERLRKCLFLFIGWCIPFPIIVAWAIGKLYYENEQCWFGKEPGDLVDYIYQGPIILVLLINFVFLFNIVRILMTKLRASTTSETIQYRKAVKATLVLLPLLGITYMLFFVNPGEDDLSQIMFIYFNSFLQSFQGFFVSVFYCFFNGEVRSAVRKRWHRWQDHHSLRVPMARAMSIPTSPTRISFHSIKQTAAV

| SMILES | IC50 [1] | IC50 [2] [nM] |
| --- | --- | --- |
| CCc1cc(CC)n(C[C@H]2CC[C@H](NC(=O)c3cc(Cl)cnc3C)CC2)n1 | 160 nM | – |
| COc1ccc(-c2cc(C)n(C[C@H]3CC[C@H](NC(=O)c4cc(C(F)(F)F)ccc4Cl)CC3)n2)cc1 | 82 nM | – |
| CCc1cc(C)nn1C[C@H]1CC[C@H](NC(=O)c2cc(C(F)(F)F)ccc2Cl)CC1 | 22 nM | – |
| Cc1ncc(Cl)cc1C(=O)N[C@H]1CC[C@@H](Cn2nc(-c3ccccc3)cc2C)CC1 | – | 4940 |
| CCc1[nH]nc(NC[C@H]2CC[C@H](NC(=O)c3cc(Cl)cnc3C)CC2)c1C | 134 nM | 4880 |
| O=C(N[C@H]1CC[C@H](Cn2cc(Cl)c(CO)n2)CC1)c1cc(C(F)(F)F)ccc1Cl | 95 nM | 4850 |
| Cc1cnn(C[C@H]2CC[C@H](NC(=O)c3cc(C(F)(F)F)ccc3Cl)CC2)c1 | 132 nM | – |
| COc1ccc(-c2c(NC[C@H]3CC[C@H](NC(=O)c4cc(C(F)(F)F)ccc4Cl)CC3)n[nH]c2C)c(Cl)c1 | 35 nM | – |
| Cc1ncc(Cl)cc1C(=O)N[C@H]1CC[C@H](Cn2nc(CO)cc2C)CC1 | 665 nM | – |

More lines, now with the values ahead:

| IC50 [1] | IC50 [2] [nM] | SMILES |
| --- | --- | --- |
| 256 nM | – | Cc1ncc(Cl)cc1C(=O)N[C@H]1CC[C@H](Cn2nc(C)c(Cl)c2C)CC1 |
| 67 nM | – | COc1cc(C)nn1C[C@H]1CC[C@H](NC(=O)c2cc(C(F)(F)F)ccc2Cl)CC1 |
| 634 nM | – | Cc1cc(C)n(C[C@H]2CC[C@H](NC(=O)c3cc(C(F)(F)F)cnc3C)CC2)n1 |
| 167 nM | – | Cc1cn(C[C@H]2CC[C@H](NC(=O)c3cc(C(F)(F)F)ccc3Cl)CC2)nc1C |
| 6960 nM | – | Cc1cc(CO)n(C[C@H]2CC[C@H](NC(=O)c3cc(Cl)cnc3C)CC2)n1 |
| 170 nM | – | O=C(N[C@H]1CC[C@H](Cn2ncc3c2CCC3)CC1)c1cc(C(F)(F)F)ccc1Cl |
| 21 nM | – | CCc1cc(CC)n(C[C@H]2CC[C@H](NC(=O)c3cc(C(F)(F)F)ccc3Cl)CC2)n1 |
| 142 nM | 3740 | Cc1ncc(Cl)cc1C(=O)N[C@H]1CC[C@H](Cn2nc(-c3cccnc3)cc2C)CC1 |
| – | 2030 | CCc1cc(C)n(C[C@H]2CC[C@H](NC(=O)c3cc(C(F)(F)F)ccc3Cl)CC2)n1 |
| 180 nM | 4630 | Cc1ncc(Cl)cc1C(=O)N[C@H]1CC[C@@H](Cn2nc(-c3ccc(F)cc3)cc2C)CC1 |
| 318 nM | – | Cc1ncc(Cl)cc1C(=O)N[C@H]1CC[C@H](Cn2cc3c(n2)CCCC3)CC1 |
| 59 nM | – | Cc1cc(-c2ccc3c(c2)OCO3)nn1C[C@H]1CC[C@H](NC(=O)c2cc(C(F)(F)F)ccc2Cl)CC1 |
| 88 nM and 262 nM | – | Cc1cc(C)n(C[C@H]2CC[C@H](NC(=O)c3cc(Cl)cnc3C)CC2)n1 |
